From EP1892243A1, “Polymorphic forms of ziprasidone sulphate salts” (KRKA, tovarna zdravil, d.d., Novo mesto, priority 2006, dated 2008)
Structures can show the parent of a compound that is named as a salt.

Columns and labels:
[1] = Particle size by laser light scattering; assay type: physicochemical; settings: drug substance used in the compositions of Example 12
Protocol: The average particle size is determined by laser light scattering using a Malvern-Mastersizer Apparatus MS 2000. The particles to be subjected to the particle size measurement are first suspended in isoparafinic oil (Isopar®) and then subjected to a size determination in a Malvern Mastersizer MS 2000 instrument. Usually, 100-800 mg of substance is dispersed in 5-8 ml of […]. According to manufacturer's information, the Malvern Mastersizers allow for a measurement of particle size distributions in the range of 20 nm to 2000 µm, with a precision of better than 0.5%. Particle sizes are determined by measuring the angular distribution of laser light scattered by a homogeneous suspension of particles. The size distribution is determined from the light scattering data using the theory of light scattering developed by Gustav Mie.

[2] = 2 weeks
Water-sorption analysis = assay type: physicochemical; settings: for release of crystal water: at 0 % RH, nitrogen flow 200 ml/min; for release of crystal water / water sorption started at: 25°C; for water sorption started at: cycles from 0 % RH to 95 % RH
Protocol: An amount of 20 mg of zipasidone hydrogensulphate dihydrate was exposed to a water-sorption analysis (Surface Measurement Systems Ltd., London, UK; two complete 11-step circles from 0 % RH to 95 % RH at the temperature 25°C and nitrogen flow rate 200 ml/min; minimal retention time at the step when dm/dt < 0.002% is 10 minutes and maximal 360 minutes) and compared to the same test of Ziprasidone hydrochloride monohydrate.

Row | SMILES | Particle size [1] [µm] | HPLC purity of Ziprasidone after two-week stability test [2] [%] | release of crystal water (Water-sorption analysis) | stability to hydratation (Water-sorption analysis; compared with Ziprasidone hydrochloride salt) | water sorption started at (Water-sorption analysis) [% RH]
1 | O.O.O=C1Cc2cc(CCN3CCN(c4nsc5ccccc45)CC3)c(Cl)cc2N1.O=S(=O)(O)O [Ziprasidone hydrogensulphate dihydrate, 5-[2-[4-(1,2-benzisothiazol-3-yl)-1-piperazinyl]ethyl]-6-chloro-1,3-dihydro-2H-indol-2-one hydrogensulphate dihydrate] | 26 | 99.7 | does not release crystal water | more stable to hydratation | 50
2 | O=C1Cc2cc(CCN3CCN(c4nsc5ccccc45)CC3)c(Cl)cc2N1 [Ziprasidone hydrochloride monohydrate, reference compound] | – | – | release crystal water | – | 30
